Source: patent US20230357261A1, “ARYL HYDROCARBON RECEPTOR LIGANDS AND THEIR ANALOGUES FOR THE PREVENTION AND TREATMENT OF INFLAMMATORY DISORDERS” (The Johns Hopkins University, priority 2020, published 2023)

Columns and labels:
TLR4 = TLR4 signaling and expression in human ileal explant culture (LPS); assay type: cell-based; conditions: 200 μM I3C or 20 μM A18; LPS 50 μg/mL for 6 hours
Excerpt: (§1) De-identified human ileal samples were collected via waiver of consent from the Office of Human Subjects Research Review Boards at Johns Hopkins University (IRB00094036), during surgery for NEC or at the time of stoma closure. For RNA isolation and qRT-PCR analysis, fresh samples were snapfrozen in liquid nitrogen immediately. For human explant culture, fresh ileum samples from NEC patients or patient undergoing stoma re-anastomosis were washed with sterile phosphate-buffered saline containing gentamycin (5 μg/mL), minced into 2- to 4-mm diameter pieces, and then cultured in Dulbecco's modified Eagle growth medium supplemented with 10% fetal bovine serum, 4 μg/mL human recombinant insulin and 100 μg/mL Primocin. Human ilea explant cultures were then pre-treated with 200 μM I3C or 20 μM A18 for 15 minutes, and then with 50 μg/mL LPS for 6 hours, then processed for total RNA isolation followed by qRT-PCR.
(§2) Total RNA was isolated using the RNeasy mini kit (Qiagen) and complementary DNA was synthesized from 0.5 μg RNA using QuantiTect Reverse Transcription kit (Qiagen) following the manufacturer's protocols. The mRNA quantification was performed on the Bio-Rad CFX96 Real-Time System (Bio-Rad) using iTaq™ universal SYBR® Green supermix (Bio-Rad) and the primers listed in Table 1. The relative mRNA expression levels were normalized against the expression of the housekeeping gene ribosomal protein lateral stalk subunit P0 (Rplp0). For microRNA isolation, freshly harvested, snap-frozen ileal tissue was subjected to total RNA isolation using the RNeasy plus universal mini kit (Qiagen) and miRNA was quantified using miScript PCR starter kit (Qiagen) following the manufacturer's protocols. The relative miRNA expression levels were normalized against the expression of housekeeping miRNA miR-191.

AHR [1] = assay: AHR activation in IEC-6 enterocytes (Cyp1a1 expression); assay type: cell-based, rat; conditions: exposed to amniotic fluid, breast milk and serum harvested from pregnant mice administered I3C vs control diet
Protocol: The intestinal epithelial cells line IEC-6 (ATCC CRL-1592) was stably transduced with lentiviral particles containing Cignal Lenti XRE Reporter (luc) (Qiagen). Cells were treated serially with individual chemicals contained within the Johns Hopkins Drug Library (JHDL), which contains a series of FDA-approved drugs, Chong et al., 2006, (kindly provided by Dr. Jun O. Liu, Johns Hopkins University) at 10 μM for 24 hours, and the luciferase activity was quantified using the SpectraMax M3 (Molecular Devices).
as §2

AHR [2] = assay: AHR activation in mouse ileal enteroids (Cyp1a1 qRT-PCR); assay type: cell-based; set-up: Cyp1a1 expression (AHR activation) in enteroids: dose or concentration left out as unconfirmed
Protocol: Primary intestinal crypt cultures (enteroids) were generated from the ileum of neonatal (p7-p11) wild type and Ahr′ mice at as described, Neal et al., 2012, and maintained in Matrigel (Corning). The enteroids were digested and passed using TrypLE Express (Gibco) weekly, and used between passage 3 and 10 for all experiments. The enteroids were pre-treated with I3C ([…], 12 h), A18 (20 μM, 12 h) or human breast milk (100 μL/mL, Innovative Research, prepared by 5-minute-cenrifugation at 12,000 g and then filtration of supernatant through a 0.22-μm filter) and then treated with LPS (50 μg/mL) for 4 hours for further analysis.
Primary intestinal crypt cultures (enteroids) were generated from the ileum of neonatal (p7-p11) mice at as described, Neal et al., 2012, and maintained in Matrigel (Corning). The enteroids were digested and passed using TrypLE Express (Gibco) weekly, and used between passage 3 and 10 for all experiments. The enteroids were pre-treated with tested compound (40 uM, overnight) and then treated with LPS (50 μg/mL) for 6 hours for further analysis.
Total RNA was isolated using the RNeasy mini kit (Qiagen) and complementary DNA was synthesized from 0.5 μg RNA using QuantiTect Reverse Transcription kit (Qiagen) following the manufacturer's protocols. The mRNA quantification was performed on the Bio-Rad CFX96 Real-Time System (Bio-Rad) using iTaq™ universal SYBR® Green supermix (Bio-Rad) and the primers listed in Table 2. The relative mRNA expression levels were normalized against the expression of the housekeeping gene ribosomal protein lateral stalk subunit P0 (Rplp0).

AHR [3] = assay: AHR activation in human ileal explant culture (Cyp1a1 qRT-PCR); assay type: cell-based; conditions: 200 μM I3C or 20 μM A18, 15 minutes pre-treatment then 6 hours
Excerpt: as §1, with “Human ilea explant cultures were then pre-treated with 200 μM I3C or 20 μM A18 for 15 minutes, and then with 50 μg/mL LPS for 6 hours, then processed for total RNA isolation followed by qRT-PCR.” left out
as §2, with “The relative mRNA expression levels were normalized against the expression of the housekeeping gene ribosomal protein lateral stalk subunit P0 (Rplp0).” left out, “The relative miRNA expression levels were normalized against the expression of housekeeping miRNA miR-191.” left out

## OCc1c[nH]c2ccccc12 [I3C, indole-3-carbinol]
TLR4
  LPS-induced Tnf-a expression in human intestinal explant cultures: reduced LPS-induced Tnf-a expression
AHR [1]
  Cyp1a1 expression in cultured IEC-6 enterocytes: significantly increased the expression of Cyp1a1
AHR [2]; Ahr^−/− enteroids, I3C or human breast milk
  Cyp1a1 expression (AHR activation) in enteroids: not
AHR [2]; wild-type enteroids, I3C (12 h) or human breast milk (100 μL/mL)
  Cyp1a1 expression (AHR activation) in enteroids: induced the expression of Cyp1a1
AHR [3]
  Cyp1a1 expression in human intestinal explant cultures: induced the expression of Cyp1a1
